In patent US10959970B2, “Methods of treating hair related conditions” (Nogra Pharma Limited, priority 2009, dated 2021):

Tests used:
IL-6 = experiment: Inhibition of IL-6 protein induction by LPS in keratinocytes (ELISA); format: cell-based, human; settings: LPS 10 μg/ml, 0.01-0.1-0.5 mM, 24 h, supernatant ELISA, FIG. 11
Description: Analysis of the inhibition by Compound A of the protein induction of IL-6 by LPS (lipopolysaccharide) was done with the ELISA kit. The keratinocytes were plated in wells of a 24-well plate. At 80% confluence, the cells were treated with LPS (10 μg/ml) in presence of compound A at the three concentrations (0.01-0.1-0.5 mM) for 24 h. At the end of the treatment, the supernatant was decanted, centrifuged so as to remove any cell detritus, and kept at −80° C. until the time of the analysis. The quantity of IL-6 present in the supernatant was normalized by the protein concentration of the sample itself.

[1] = tested on: human primary keratinocytes; experiment: MTT test on human primary keratinocytes; format: cell-based; settings: 0.1-1-2 mM, 24 and 48 h, FIG. 7
Description: To assess the possible toxic or cytostatic effect of the substances under study, a spectrophotometric test (MTT) was carried out. The human primary keratinocytes, isolated from skin biopsies, were plated in wells of a 24-well plate in suitable medium with addition of antibiotics, calcium, and specific growth factors. At around 70% confluence, the cells were exposed to the presence of Compound A, at various concentrations (0.1-1-2 mM), for 24 and 48 h in suitable medium with addition of antibiotics, calcium, but no growth factors. This culture condition was done for all the subsequent experiments. At the end of the treatment, the MTT test was done.

K19 = K19 cells in treated hair follicles and skin; format: cell-based, human; settings: for K19 cells: lower hair follicle, FIG. 6
Description: (§1) A Philpott model test system of microdissected organ-cultured hair follicles is used. Hair follicles and skin punches were divided into 4 groups (3 HFs/well) incubated with the test substance Compound ‘A in different concentrations for 6 days. On day 0, microdissection measurements of hair length are conducted. On day 1, the medium is changed and addition of compound A (with measurement of hair length). On day 3, the medium is changed and compound a is added (with measurement of hair length). On day 6, hair length is measured and embedding occurs.

IL-6 mRNA = experiment: Inhibition of IL-6 mRNA induction by IFN-γ in keratinocytes (Real time RT-PCR); format: cell-based, human; settings: IFN-γ 30 ng/ml, 0.01-0.1-0.5 mM, 6 h, FIG. 9
Description: Analysis of the inhibition by compound A of the mRNA induction of the proinflammatory cytokine IL-6 by IFN-γ was done through Real time RT-PCR. The keratinocytes were plated in dishes of 6 cm/Ø.
At 80% confluence, the cells were treated with IFN-γ (30 ng/ml) in presence of compound A at the three concentrations (0.01-0.1-0.5 mM) for 6 h.

TNF-alpha mRNA = experiment: Inhibition of TNF-alpha mRNA induction by H2O2 in keratinocytes (Real time RT-PCR); format: cell-based, human; settings: H2O2 300 μM, 6 h, FIG. 8
Description: Analysis of the inhibition of compound A of the mRNA induction of the proinflammatory cytokine TNF-alpha by H2O2 was carried out by Real time RT-PCR. The keratinocytes were plated in dishes of 6 cm/Ø. At 80% confluence, the cells were treated with H2O2 (300 μM) in presence of Compound A at the three concentrations (0.01-0.1-0.5 mM) for 6 h. At the end of the treatment, the cells were lysed in a lysis buffer and subjected to isolation and subsequent retrotranscription of the RNA. […] (FIG. 8)

K15 = K15 expression in treated hair follicles and skin; format: cell-based, human; settings: FIG. 5
Description: as §1

[2] = tested on: human hair follicle pigmentation; experiment: Fontana-Masson histomorphometry/melanin staining on hair follicle cryosections; format: cell-based; settings: FIG. 2
Description: as §1

[3] = tested on: human hair matrix keratinocytes; experiment: Ki-67/Tunel fluorescent staining of hair follicles; format: cell-based; settings: high doses of compound A; FIG. 4
Description: as §1
Ki-67/Tunel staining was also conduct on the hair follicles using fluorescent staining.

sebocytes [4] = experiment: Nile Red assay of sebogenesis induced by linoleic acid and testosterone in sebocytes; format: cell-based, human; settings: for sebogenesis (intracellular lipids, Nile Red) induced by LA and LA+TST: TST (20 nM), 24 h
Description: Analysis of the inhibition by (compound A) of sebogenesis induced by treatment with linoleic acid (LA) and with testosterone (TST) was evaluated by spectrofluorimetry, using Nile Red as selective marker of intracellular lipids (Nile Red Assay). The sebocytes were plated in wells of a 24-well plate. Next day, they were deprived of serum (2%) and after 24 h they were stimulated, for another 24 h, with LA (10^-4M), TST (20 nM) in presence or in absence of A (1 mM). At the end of the treatment, the sebocytes were stained with Nile Red. The quantitative analysis was done by spectrofluorimetry, which made it possible to distinguish between neutral lipids and polar lipids based on the different wavelength of excitation and emission. […] (FIG. 13).
Analysis of the inhibition by compound A of sebogenesis induced by treatment with linoleic acid (LA) and with testosterone (TST) was evaluated by spectrofluorimetry, using Nile Red as selective marker of intracellular lipids (Nile Red Assay). The sebocytes were plated in wells of a 24-well plate. Next day, they were deprived of serum (2%) and after 24 h they were stimulated, for another 24 h, with LA (10^-4M), TST (20 nM) in presence or in absence of compound A (1 mM). At the end of the treatment, the sebocytes were stained with Nile Red. The quantitative analysis was done by spectrofluorimetry, which made it possible to distinguish between neutral lipids and polar lipids based on the different wavelength of excitation and emission.

[5] = tested on: microdissected organ-cultured hair follicles; experiment: Hair shaft elongation in Philpott model of microdissected organ-cultured hair follicles; format: cell-based, human; settings: 6 days, lower dose of compound A, FIG. 1
Description: as §1

sebocytes [6] = experiment: MTT test on human sebocytes; format: cell-based; settings: 0.1-0.5-1-2 mM, 24 and 48 h, FIG. 12
Description: To assess the possible toxic or cytostatic effect of the substances under study, a spectrophotometric test (MTT) was carried out. The sebocytes were plated in wells of a 24-well plate in suitable medium with addition of antibiotics, calcium and EGF. At roughly 70% confluence, the cells were exposed to the presence of compound A, in various concentrations (0.1-0.5-1-2 mM), for 24 and 48 h. At the end of the treatment, the MTT test was performed. […] (FIG. 12)

sebocytes [7] = experiment: GC-MS assay of fatty acids and squalene in lipid extract of sebocytes stimulated with LA and TST; format: cell-based, human; settings: sebocyte lipid extract, A 1 mM
Description: In order to evaluate in greater detail the inhibition by Compound A of sebogenesis induced by LA and TST, assays were performed on the lipid extract of the sebocytes using gas chromatography coupled with mass spectrometry (GC-MS). The sebocytes were treated by the scheme described for the Nile Red assay. At the end of the treatment, the cells were removed and then the lipid extraction was done by using organic solvents. One part of the extract was used to analyze the fatty acid composition, while the other part was used for the determination of the quantity of squalene, a lipid characteristic of sebum. […] (FIG. 14B)

CO[C@H](Cc1ccc(NC(C)=O)cc1)C(=O)O [Compound A, N-acetyl-(R)-(−)-3-(4-aminophenyl)-2-methoxypropionic acid]
protein expression of IL-6 induced by LPS (IL-6): inhibit, in dose-dependent manner | cellular vitality (MTT) [1]: did not show any effect on cellular vitality | K19 cells (K19; 10× higher concentration): down regulation | K19 cells (K19; lower concentration): significant upregulation | K19 expression (K19; skin): no measurable expression | dose dependence of inhibition of IL-6 mRNA expression induced by IFN-γ (IL-6 mRNA): does not appear to be dose-dependent | mRNA expression of IL-6 induced by IFN-γ (IL-6 mRNA): inhibit the expression of the inflammatory cytokine | expression of the mRNA of TNF-α induced by H2O2 (TNF-alpha mRNA; higher dose (0.5 mM), effect similar to troglitazone (Tg)): complete inhibition | expression of the mRNA of TNF-α induced by H2O2 (TNF-alpha mRNA; two higher doses (0.1 mM; 0.5 mM)): able to inhibit | K15 expression (K15; lower hair follicle, lower doses of compound A): significant upregulation | K15 expression (K15; treated skin): no measurable expression | human hair follicle pigmentation (melanin staining) [2]: stimulation of human hair follicle pigmentation | proliferation and apoptosis of hair matrix keratinocytes (Ki67/Tunel immunohistomorphometry) [3]: stimulates both proliferation and apoptosis | sebogenesis (intracellular lipids, Nile Red) induced by LA and LA+TST (sebocytes [4]; Example 9, LA (10^-4M), A 1 mM, FIG. 13): able to reduce the lipidogenic stimulus | sebogenesis (intracellular lipids, Nile Red) induced by LA and LA+TST (sebocytes [4]; Example 11, LA (10^-4M), compound A 1 mM, FIG. 15): able to reduce the lipidogenic stimulus | influence of the times of treatment on reduction of the lipidogenic stimulus (sebocytes [4]; Example 11, Nile Red assay, FIG. 15): No differences were observed | hair shaft elongation [5]: stimulates hair shaft elongating | cell vitality (MTT) (sebocytes [6]): no effects on cell vitality | fatty acid assay of lipidogenic stimulus induced by LA and LA+TST (sebocytes [7]; FIG. 14A): reduced | squalene analysis of lipidogenic stimulus induced by LA and LA+TST (sebocytes [7]; FIG. 14B): confirmed
